According to patent US8431602B2, “Beta-amino acid derivatives for treatment of diabetes” (Merck Patent Gesellschaft mit beschrankter Haftung, priority 2008, dated 2013):

biological target: T1, glucokinase (GK), human enzyme (Homo sapiens, UniProt P35557); assay: Glucokinase Activation Assay (coupled enzyme assay with PK/LDH, NADH decline at 340 nm); format: biochemical; conditions: 2 mM glucose, half maximal effective concentration of activation
T1 sequence (P35557 1-465): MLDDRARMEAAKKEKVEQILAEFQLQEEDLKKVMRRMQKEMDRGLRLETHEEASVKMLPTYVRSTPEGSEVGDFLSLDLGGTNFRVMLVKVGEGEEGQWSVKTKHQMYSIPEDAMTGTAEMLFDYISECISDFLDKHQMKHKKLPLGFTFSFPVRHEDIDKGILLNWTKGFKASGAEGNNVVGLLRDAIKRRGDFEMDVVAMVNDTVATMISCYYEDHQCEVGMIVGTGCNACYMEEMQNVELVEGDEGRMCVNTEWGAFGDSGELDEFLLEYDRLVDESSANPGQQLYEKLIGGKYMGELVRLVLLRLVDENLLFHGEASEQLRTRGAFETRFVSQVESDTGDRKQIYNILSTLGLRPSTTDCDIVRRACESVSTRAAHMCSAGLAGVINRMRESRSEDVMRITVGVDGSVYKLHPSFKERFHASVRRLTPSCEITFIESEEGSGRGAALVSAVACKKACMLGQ
Description: Glucokinase Activation Screening Assay
GK activity (human or rat enzyme) is measured by a coupled enzyme assay using pyruvate kinase (PK) and lactate dehydrogenase (LDH) as coupling enzymes. GK activity is calculated from the decline in NADH monitored photometrically with a microtiter plate (MTP) reader at 340 nm.
For screening purposes, the GK assay is routinely run in a 384-MTP format, in a total volume of 33 μl/well. 10 μl of the ATP-regeneration solution (in HEPES-buffer*, pH 7.0, 6.73 U/ml pyruvate kinase, 6.8 U/ml lactate dehydrogenase) and 10 μl of the glucokinase-/glucose solution (15 μg/ml, 6.6 mM glucose in HEPES-buffer*, pH 7.0; the concentration of the glucose stock-solution was 660 mM in Millipore H2O) were mixed together with 3 μl of a 10% DMSO solution (in HEPES-buffer*, pH 7.0) containing […] the amounts of the compounds to achieve final compound concentrations in the range between 1 nM to 30 μM (sometimes 300 μM) in the assay solution (s. below). The solutions were mixed for 5 sec, and after a centrifugation at 243×g for 5 min, the solutions were preincubated for 25 min at room temperature. The reaction was started by the addition of 10 μl of the NADH-/ATP-solution (4.29 mM NADH, 4.95 mM ATP, in HEPES-buffer*). The MTP was shaken for 5 sec., and then, the absorbance at 340 nm was monitored continuously in a MTP-reader (TECAN Spectro fluor plus) for the next 27 min (with a MTP-cycling time of 199 sec.). The final concentrations of the various components were as follows: 49.5 mM Hepes, pH 7.0, 1.49 mM PEP, 1.3 mM NADH, 49.5 mM KCl, 4.96 mM MgCl2, 1.5 mM Mg-ATP, 1.98 mM DTT, 2.04 U/ml pyruvate kinase, 2.06 U/ml lactate-dehydrogenase, 0.91% DMSO, 0.15 μg/well glucokinase, and test compounds in the range between 1 nM and 300 μM, The change in the optical density (ΔOD340 nm) in the presence of the compound was expressed relative to the ΔOD340 nm, ctrl of the control incubation (in the presence of 2 mM glucose and 0.91% DMSO), taking into account the optical density of the blank sample (incubation in the absence of 2 mM glucose). For the determination of the half maximal effective concentration (EC50), the %-Ctrl-values were plotted in a semi-logarithmic graph against the cone. of the compound of interest. The data points were fitted to a sigmoid curve function (f(x)=((%-Ctrlmax−%-Ctrlmin)/(1−(EC50/x**^n(Hill)))+%-Ctrlmin)) by a non-linear regression analysis. • Hepes-buffer (50 mM Hepes, pH 7.0, 5 mM MgCl2, 50 mM KCl, 1.5 mM PEP, 0.1% BSA). DTT was added to the Hepes-buffer from a 200× stock solution (in Millipore H2O) freshly each day. The final concentration of DTT in the Hepes-buffer is 2 mM. Culture of Pancreatic INS-1 Cells

Row | Structure (SMILES) | EC50
1 | COc1cc(C(CC(=O)Nc2ccc(Cl)cn2)N2Cc3ccccc3C2=O)cc(OC)c1OC (stereo not drawn) [B2, N-(5-Chloro-pyridine-2-yl)-3-(1-oxo-1,3-dihydro-isoindole-2-yl)-3-(3,4,5-trimethoxy-phenyl)-propionamide] | 1 to 10 µM
2 | COc1ccc(C(CC(=O)Nc2ccc(Br)cn2)N2Cc3ccccc3C2=O)cc1OC (stereo not drawn) [B5, N-(5-Bromo-pyridine-2-yl)-3-(3,4-dimethoxy-phenyl)-3-(1-oxo-1,3-dihydro-isoindole-2-yl)-propionamide] | > 10 µM
3 | COc1ccc(C(CC(=O)Nc2ccc(Cl)cn2)N2Cc3ccccc3C2=O)cc1OC (stereo not drawn) [B6, N-(5-Chloro-pyridine-2-yl)-3-(3,4-dimethoxy-phenyl)-3-(1-oxo-1,3-dihydro-isoindole-2-yl)-propionamide] | > 10 µM
4 | COc1cc(C(CC(=O)Nc2ccc(C)cn2)N2Cc3ccccc3C2=O)cc(OC)c1OC (stereo not drawn) [B7, N-(5-Methyl-pyridine-2-yl)-3-(1-oxo-1,3-dihydro-isoindole-2-yl)-3-(3,4,5-trimethoxy-phenyl)-propionamide] | 1 to 10 µM

Next, values leading:

Row | EC50 | Structure (SMILES)
5 | 1 to 10 µM | COc1cc(C(CC(=O)Nc2ccc(Cl)cn2)N2Cc3ccccc3C2=O)cc(OC)c1OC (single isomer, unassigned; (+)) [C1, (+)-N-(5-Chloro-pyridine-2-yl)-3-(1-oxo-1,3-dihydro-isoindole-2-yl)-3-(3,4,5-trimethoxy-phenyl)-propionamide]
6 | > 10 µM | CCOc1ccc(C(CC(=O)Nc2ccc(Cl)cn2)N2Cc3ccccc3C2=O)cc1OC (single isomer, unassigned; (+)) [C4, (+)-N-(5-Chloro-pyridine-2-yl)-3-(4-ethoxy-3-methoxy-phenyl)-3-(1-oxo-1,3-dihydro-isoindole-2-yl)-propionamide]
7 | > 10 µM | CCOc1ccc(C(CC(=O)Nc2ccc(Cl)cn2)N2Cc3ccccc3C2=O)cc1OC (single isomer, unassigned; (-)) [C5, (−)-N-(5-Chloro-pyridine-2-yl)-3-(4-ethoxy-3-methoxy-phenyl)-3-(1-oxo-1,3-dihydro-isoindole-2-yl)-propionamide]
8 | > 10 µM | COc1cccc(C(CC(=O)Nc2ccc(Cl)cn2)N2Cc3ccccc3C2=O)c1OC (stereo not drawn) [C3, N-(5-Chloro-pyridine-5-yl)-3-(2,3-dimethoxy-phenyl)-3-(1-oxo-1,3-dihydro-isoindole-2-yl)-propionamide]
9 | > 10 µM | CCOc1ccc(C(CC(=O)Nc2ccc(Cl)cn2)N2Cc3ccccc3C2=O)cc1OC (stereo not drawn) [C23, N-(5-Chloro-pyridine-2-yl)-3-(4-ethoxy-3-methoxy-phenyl)-3-(1-oxo-1,3-dihydro-isoindole-2-yl)-propionamide]
